Measured values published in paper PMC11705955, “Lack of activity of HIV-1 integrase strand-transfer inhibitors on recombinase activating gene (RAG) activity at clinically relevant concentrations” (Microbiology Spectrum, 2024).

Experiments:
[1] = 5-day cytotoxicity assay with Cell Titer Glo readout, MT4; assay type: cell-based; details: human
Text: (§1) Supplemental Table S2. CC50 values for INSTIs in 5- day cytotoxicity as says with Cell Titer
(§2) Expi293F GALPC3 GALHEP HUH7 MRC5 MT4 PBMC PBMC
(§3) Kidney Prostate Hepatoma Hepatoma Lung T-cell line Primary Primary
(§4) (embryonic) cancer cell cell line cell line fibroblast cells

[2] = 5-day cytotoxicity assay with Cell Titer Glo readout, GALPC3; assay type: cell-based; details: human
Text: as §1, §2, §3, §4

[3] = 5-day cytotoxicity assay with Cell Titer Glo readout, GALHEPG2; assay type: cell-based; details: human
Text: as §1, §2, §3, §4

[4] = tested on: PBMC primary cells; assay: 5-day cytotoxicity assay with Cell Titer Glo readout, PBMC; assay type: cell-based; details: 5 day
Text: as §1, §2, §3, §4

[5] = as above; assay type: cell-based; details: CC50
Text: as §1, §2, §3, §4

[6] = 5-day cytotoxicity assay with Cell Titer Glo readout, MRC5; assay type: cell-based; details: human
Text: as §1, §2, §3, §4

[7] = 5-day cytotoxicity assay with Cell Titer Glo readout, HUH7; assay type: cell-based; details: human
Text: as §1, §2, §3, §4

[8] = tested on: murine mCherry-core RAG1 / mCherry-RAG2 V(D)J recombination in Expi293F cells; assay: Extrachromosomal cell-based V(D)J recombination assay (GFP reporter, flow cytometry)
Text: To further evaluate the effect of HIV-1 integrase inhibitors on RAG activity in a cellular context, we optimized a novel extrachromosomal cell-based V(D)J recombination assay, enabling assessment of multiple compounds in a dose–response manner by flow cytometry ([33]). The schematic of FL murine RAG1 and RAG2 proteins, including the active site residues (DDE motif) in RAG1 and catalytically essential core regions of each protein, are shown in Fig. 5A. The cell-based assay used vectors that encode for the core RAG1 protein (instead of the FL version) and FL murine RAG2 expressed as C-terminal fusions to mCherry, termed mCherry-core RAG1 and mCherry-RAG2. The core regions of each RAG protein are sufficient to catalyze V(D)J recombination, whereas the non-core regions function to regulate the recombination reaction ([13]). […] The consensus RSS used in this assay contains a conserved heptamer and nonamer separated by 12 or 23 non-conserved bp (12RSS and 23RSS) (Fig. 5B). A general schematic of the design for the plasmid substrate with the 12RSS and 23RSS orientations before and after V(D)J recombination is presented in Fig. 5C. More specifically, the plasmid substrate pMAXgfp-INV was designed with a 12RSS and a 23RSS flanking each side of the Pontellina plumata green fluorescent protein gene (termed maxGFP), where the gene is in an inverted orientation relative to the CMV promoter (Fig. 5D). The RSSs are positioned in a co-linear orientation, such that successful V(D)J recombination activity will result in inversion of the maxGFP gene to place it in a transcriptionally active orientation with resulting expression of GFP. Detection of GFP-expressing cells using microscopy and flow cytometry was used as a direct readout of V(D)J recombination activity.
For the recombination assay, the pMAXgfp-INV plasmid substrate and RAG1/RAG2 expression vectors (mCherry-core RAG1 and mCherry-RAG2) were transiently transfected into Expi293 cells in the absence or presence of integrase inhibitors and were assessed via microscopy and flow cytometry. The fluorescence signal from the mCherry-tag is used to assess transfection efficiency of RAG1/RAG2 vectors (Fig. 6A). We observed that transfection of the pMAXgfp-INV substrate into Expi293 cells with RAG1/RAG2 expression vectors yielded robust GFP expression 48 h post-transfection in the cells treated with vehicle control (0.1% dimethyl sulfoxide [DMSO]) (Fig. 6A). […] NU7026 inhibits double-strand break repair, which is a necessary step after DNA cleavage by RAG enzymes, and thus serves as an indirect inhibitor of RAG activity ([35]).
To test the effect of HIV-1 integrase inhibitors on V(D)J recombination activity, we optimized an extrachromosomal cell-based V(D)J recombination assay ([33]). Briefly, Expi293 cells were plated at 1 × 10^6 cells/mL in six-well plates in Gibco Expi293 expression media the day before transfection. The next day, the Expi293 cells were co-transfected with three separate vectors, pMAXgfp-INV plasmid substrate, mCherry-core RAG1, and mCherry-RAG2 expression vectors with a 4:1 transfection reagent:DNA ratio using ExpiFectamine 293 transfection reagent (Gibco). Vehicle or candidate inhibitors were added to cell samples 2 h after transfection, with six different concentrations of each inhibitor added to separate wells. Fivefold dilutions for each inhibitor starting from 10 µM were tested.
Experiments were performed with six separate inhibitors in at least three independent experiments. Two negative control conditions for recombination activity were performed in parallel and include (i) transfections in the presence of NU7026 at 30 and 50 µM (Abcam) and (ii) using a modified pMAXgfp-INV substrate containing two 12RSSs (instead of one 12RSS and one 23RSS) that is inefficiently recombined by the RAG proteins. Vehicle control (0.1% DMSO) served as the positive control for GFP expression. The fluorescence signal from the mCherry tag was used to assess transfection efficiency. […]

[9] = molecular target: T1, recombinant human core RAG1 (AA387-1011)/core RAG2 (AA1-387) in the presence of HMGB1 (Homo sapiens, UniProt P15918+P55895); assay: Biochemical RAG DNA cleavage assay (gel-based, dsDNA 12RSS/23RSS substrate); details: 25 nM RAG1-RAG2, 575 nM HMGB1, 10 nM dsDNA, 5 mM MgCl2, 1 h 37°C, no serum
T1 construct: made in house; host or cells: RAG1/RAG2 co-expressed in Expi293F GnTI human cells; HMGB1 in E. coli BL21DE3
T1 sequence (P15918 387-1011): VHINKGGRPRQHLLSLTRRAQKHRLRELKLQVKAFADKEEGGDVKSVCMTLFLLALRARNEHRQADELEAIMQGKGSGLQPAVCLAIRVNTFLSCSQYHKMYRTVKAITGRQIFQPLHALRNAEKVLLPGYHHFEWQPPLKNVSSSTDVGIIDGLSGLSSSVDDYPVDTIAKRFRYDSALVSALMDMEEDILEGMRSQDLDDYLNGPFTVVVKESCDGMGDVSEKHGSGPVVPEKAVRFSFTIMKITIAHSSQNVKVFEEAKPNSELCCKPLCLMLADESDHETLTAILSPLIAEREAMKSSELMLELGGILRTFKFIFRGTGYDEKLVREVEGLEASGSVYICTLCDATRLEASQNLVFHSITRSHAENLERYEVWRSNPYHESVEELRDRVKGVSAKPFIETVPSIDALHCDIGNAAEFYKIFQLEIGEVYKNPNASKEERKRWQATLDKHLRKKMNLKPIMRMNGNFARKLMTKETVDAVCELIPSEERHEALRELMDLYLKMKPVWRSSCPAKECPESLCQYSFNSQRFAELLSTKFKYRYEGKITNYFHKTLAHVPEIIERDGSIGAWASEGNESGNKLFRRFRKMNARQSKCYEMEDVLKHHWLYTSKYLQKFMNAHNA
T1 sequence (P55895 1-387): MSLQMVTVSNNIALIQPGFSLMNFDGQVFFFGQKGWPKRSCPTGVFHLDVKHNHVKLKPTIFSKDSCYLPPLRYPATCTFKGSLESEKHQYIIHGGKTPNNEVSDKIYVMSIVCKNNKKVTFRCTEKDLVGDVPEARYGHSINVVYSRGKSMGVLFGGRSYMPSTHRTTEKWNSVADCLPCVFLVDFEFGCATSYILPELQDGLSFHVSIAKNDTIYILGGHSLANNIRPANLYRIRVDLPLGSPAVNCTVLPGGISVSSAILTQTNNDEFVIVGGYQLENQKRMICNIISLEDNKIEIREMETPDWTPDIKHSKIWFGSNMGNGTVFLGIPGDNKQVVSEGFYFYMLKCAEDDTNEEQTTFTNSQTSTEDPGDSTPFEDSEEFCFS
Text: To directly observe the potential inhibition of RAG1/RAG2, we measured the effect of INSTIs on DNA cleavage by RAG1/RAG2 in the presence of HMGB1. This biochemical system utilizes pre-assembled recombinant human core RAG1 (AA387-1011)/core RAG2 (AA1-387) in the presence of excess truncated HMGB1 (AA1-163) and a linear dsDNA RSS substrate, using gel electrophoresis and a fluorescent dye to monitor cleavage products (Fig. 2A) ([24]). The dsDNA RSS substrate, containing both the 12RSS and 23RSS, was designed to have the different cleavage products resolved via gel electrophoresis. RAG1/RAG2 can singly cleave either the 12RSS or the 23RSS, or both, leading to potentially five different products in the reaction (Fig. 2B). HMGB1 orients RAG1/RAG2 for proper binding to the RSS substrate ([16]). We quantified the activity of RAG as the percentage of substrate conversion to a specific cleaved product, as separated by agarose gel electrophoresis and determined by the DNA-binding fluorescent dye. With the 569-bp substrate, a single cleavage of the 12RSS results in a 492-bp dsDNA and a 77-bp hairpin. Cleavage of the 23RSS alone produces a 433-bp dsDNA and a 136-bp hairpin. Successful cleavage of both RSSs results in a 356-bp dsDNA and both of the 77- and 136-bp hairpins. For the RAG activity analysis, we measured the amount of double cleaved product (356 bp) in relation to the amount of substrate (569 bp) at the end of the reaction. The optimal concentrations of RAG1/RAG2, HMGB1, and MgCl2 were determined through titration (Fig. S2). Because there is no direct RAG1/RAG2 inhibitor previously characterized, we used suramin, a polyanionic compound commonly used as a non-specific inhibitor for DNA/RNA binding or processing proteins as a control for inhibition ([25], [26]).
Prior to the cleavage assay, compounds at the designated concentrations were spotted into 96-well plates using the Tecan Digital D300e (Tecan, Mannedorf, Switzerland). RAG1/RAG2 was incubated with HMGB1 and MgCl2 on ice for at least 15 min in a reaction buffer (25-mM 3-(N-morpholino)propanesulfonic acid [MOPS], pH 7.0, 50-mM KCl, and 2-mM DTT). After the initial incubation, the enzyme solution was added to the compound plates and incubated for an additional 15 min at room temperature. dsDNA substrate in reaction buffer was added to the plates to initiate the reaction. The final conditions of the reaction are 25-nM RAG1–RAG2 complex, 575-nM HMGB1, 10-nM dsDNA substrate, and 5-mM MgCl2. After 1 h at 37°C, reactions were quenched by the addition of final concentrations of 0.19% SDS, 45.5-µg/mL Proteinase K, and 60-mM EDTA.
Glycerol was added to a final concentration of 7.6% in each sample, and samples were loaded onto non-denaturing 6% Tris–borate–EDTA (TBE) gels in 1× TBE buffer. The samples were run at 100 V for 1.5 h, and gels were stained with 1× SYBR Gold in 1× TBE for 20 min. The stained gels were imaged with an Amersham Typhoon Biomolecular Imager.
The gel images were analyzed using ImageQuant software (Cytiva). The densities of the 569-bp-length substrate and fully cleaved 356-bp-length product were quantified. The product density was divided by the sum of substrate and product bands to obtain a percent product value. These calculated values were subtracted from a negative control (pre-quenched reaction where EDTA was added before reaction was initiated) and then normalized to the DMSO-treated control. The normalized data were plotted against concentration using GraphPad Prism (version 9.3; GraphPad Software, San Diego, CA, USA).

[10] = molecular target: T2, human core RAG1 (AA387-1011), MBP-10N-PreScission-RAG1 (human, UniProt P15918-1 387-1011); assay: SEC; analytical SEC-HPLC, Superdex 200 Increase 5/150 GL column, 10-µg protein sample; co-expressed and co-purified MBP-tagged core RAG1 and core RAG2; details: both partners purified
T2 construct: also called RAG1 core domain; source: Expi293F GnTI cells, plasmids transfected (co-expressed with core RAG2), purified (MBP-Trap, Superdex 200); not shown: MBP, N-terminal, kept
T2 sequence (looked up): T1 sequence (P15918 387-1011)

Molecule: COc1ccc(C[C@H](N)C(=O)N[C@H]2[C@@H](O)[C@H](n3cnc4c(N(C)C)ncnc43)O[C@@H]2CO)cc1 [Puromycin]
- CC50 at 5 day [1]: 210 nM
- CC50 at 5 day [2]: 390 nM
- CC50 at 5 day [3]: 410 nM
- CC50 [4]: 500 nM
- CC50 at 5 day [5]: 540 nM
- CC50 at 5 day [6]: 310 nM
- CC50 at 5 day [7]: 320 nM

Molecule: O=c1cc(N2CCOCC2)oc2c1ccc1ccccc12 [NU7026]
- Effect on percentage of GFP-positive cells / RAG recombination ([8]; across concentrations tested, 48 h post-transfection): dose-dependent decrease in percentage of GFP-positive cells
- IC50 ([8]; compound added 2 h after transfection, read 48 h post-transfection, serum-free media, read-out: IC50 in cellular V(D)J recombination assay (% GFP-positive cells)): 41500 ± 9400 nM

Molecule: Cc1ccc(C(=O)Nc2ccc(S(=O)(=O)O)c3cc(S(=O)(=O)O)cc(S(=O)(=O)O)c23)cc1NC(=O)c1cccc(NC(=O)Nc2cccc(C(=O)Nc3cc(C(=O)Nc4ccc(S(=O)(=O)O)c5cc(S(=O)(=O)O)cc(S(=O)(=O)O)c45)ccc3C)c2)c1 [Suramin]
- IC50 [9]: 4500 ± 400 nM

B1: human core RAG2 (AA1-387), MBP-5A-RAG2 (domain or fragment, UniProt P55895 1-387, looked up)
chain: T1 sequence (P55895 1-387)
notes: also called RAG2 core domain; source: Expi293F GnTI cells, plasmids transfected (co-expressed with core RAG1), purified (MBP-Trap, Superdex 200); not shown: MBP, N-terminal, kept
- binding result [10]: binds
